# Experimental data as given in patent US20260285850A1, “SUBSTITUTED OXAZOLIDINONES AND IMIDAZOLINONES AS HERBICIDES” (FMC CORPORATION, priority 2023, published 2026).
# Legend:
# Format in all cases: in vivo
# [1] = tested on: blackgrass (Alopecurus myosuroides); test: Test A preemergence soil spray, visual injury rating 0-100; settings: 10 days
# Procedure, shortened: (§1)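 Plants in a loam and sand soil blend were treated with each test chemical, in a non-phytotoxic solvent system including surfactant, either sprayed on seeded soil before emergence or applied after emergence at the one- to two-leaf stage. Ten days later in the greenhouse, plants were compared with untreated controls and visually rated from 0 (no effect) to 100 (complete control).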
# [2] = tested on: wheat (Triticum aestivum); test: as above; settings: 10 days
# Procedure, shortened: as §1
# [3] = tested on: ryegrass, Italian (italian ryegrass, Lolium multiflorum); test: as above; settings: 10 days
# Procedure, shortened: as §1
# [4] = tested on: green foxtail (Setaria viridis); test: as above; settings: 10 days
# Procedure, shortened: as §1
# corn (Zea mays) [5] = test: as above; settings: 10 days
# Procedure, shortened: as §1
# [6] = tested on: barnyardgrass (Echinochloa crus-galli); test: as above; settings: 10 days
# Procedure, shortened: as §1
# soybean (Glycine max) [7] = test: as above; settings: 10 days
# Procedure, shortened: as §1
# [8] = tested on: oat, wild (wild oat, Avena fatua); test: as above; settings: 10 days
# Procedure, shortened: as §1
# [9] = tested on: ragweed (common ragweed, Ambrosia artemisiifolia); test: as above; settings: 10 days
# Procedure, shortened: as §1
# [10] = tested on: palmer (palmer amaranth, palmer pigweed, Amaranthus palmeri); test: as above; settings: 10 days
# Procedure, shortened: as §1
# kochia (Bassia scoparia) [11] = test: as above; settings: 10 days
# Procedure, shortened: as §1
# rice (Oryza sativa) = test: Test B flooded paddy test, visual plant response rating 0-100; settings: 250 g ai/ha, Flood, applied to paddy water, evaluated after 13 days
# Procedure, shortened: (§2)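 In this flooded assay, 2-leaf seedlings received compound through the water layer, kept at 3 cm over the soil. Plants were held 13 days in a greenhouse and then visually compared with control pots.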
# [12] = tested on: barnyardgrass (Echinochloa crusgalli); test: as above; settings: 250 g ai/ha, Flood, applied to paddy water, evaluated after 13 days
# Procedure, shortened: as §2
# [13] = tested on: ducksalad (Heteranthera limosa); test: as above; settings: 250 g ai/ha, Flood, applied to paddy water, evaluated after 13 days
# Procedure, shortened: as §2
# [14] = tested on: sedge, umbrella (small-flower umbrella sedge, Cyperus difformis); test: as above; settings: 250 g ai/ha, Flood, applied to paddy water, evaluated after 13 days
# Procedure, shortened: as §2
# [15] = tested on: blackgrass (Alopecurus myosuroides); test: Test A postemergence application, visual injury rating 0-100
# Procedure, shortened: as §1
# [16] = tested on: wheat (Triticum aestivum); test: as above
# Procedure, shortened: as §1
# [17] = tested on: ryegrass, Italian (italian ryegrass, Lolium multiflorum); test: as above
# Procedure, shortened: as §1
# [18] = tested on: horseweed (Erigeron canadensis); test: as above
# Procedure, shortened: as §1
# [19] = tested on: green foxtail (Setaria viridis); test: as above
# Procedure, shortened: as §1
# corn (Zea mays) [20] = test: as above
# Procedure, shortened: as §1
# [21] = tested on: galium (catchweed bedstraw, Galium aparine); test: as above
# Procedure, shortened: as §1
# [22] = tested on: barnyardgrass (Echinochloa crus-galli); test: as above
# Procedure, shortened: as §1
# soybean (Glycine max) [23] = test: as above
# Procedure, shortened: as §1
# [24] = tested on: oat, wild (wild oat, Avena fatua); test: as above
# Procedure, shortened: as §1
# [25] = tested on: ragweed (common ragweed, Ambrosia artemisiifolia); test: as above
# Procedure, shortened: as §1
# [26] = tested on: palmer (palmer amaranth, palmer pigweed, Amaranthus palmeri); test: as above
# Procedure, shortened: as §1
# kochia (Bassia scoparia) [27] = test: as above
# Procedure, shortened: as §1
# [28] = 62 g ai/ha, 0 = no effect, 100 = complete control
# [29] = 62 g ai/ha, postemergence, 10 days, 0 = no effect, 100 = complete control
# [30] = Postemergence, 16 g ai/ha, greenhouse 10 days, 0 no effect, 100 complete control
structure (smiles),measurement,setting,value
CC1(C(=O)NC2CC=C(C(=O)O)C2)CN(c2cc(Cl)cc(Cl)c2)C(=O)O1 (stereo not shown) [Compound 157],Blackgrass plant response rating,"[1]; 16 g ai/ha, 0 to 100 scale",0
same,Blackgrass plant response rating (0-100),[1]; [28],0
same,Wheat plant response rating,"[2]; 16 g ai/ha, 0 to 100 scale",0
same,Wheat plant response rating (0-100),[2]; [28],0
same,"Ryegrass, Italian plant response rating","[3]; 16 g ai/ha, 0 to 100 scale",0
same,"Ryegrass, Italian plant response rating (0-100)",[3]; [28],0
same,"Foxtail, Green plant response rating","[4]; 16 g ai/ha, 0 to 100 scale",0
same,"Foxtail, Green plant response rating (0-100)",[4]; [28],0
same,Corn plant response rating,"corn (Zea mays) [5]; 16 g ai/ha, 0 to 100 scale",0
same,Corn plant response rating (0-100),corn (Zea mays) [5]; [28],0
same,Barnyardgrass plant response rating,"[6]; 16 g ai/ha, 0 to 100 scale",0
same,Barnyardgrass plant response rating (0-100),[6]; [28],30
same,Soybean plant response rating,"soybean (Glycine max) [7]; 16 g ai/ha, 0 to 100 scale",0
same,Soybean plant response rating (0-100),soybean (Glycine max) [7]; [28],0
same,"Oat, Wild plant response rating","[8]; 16 g ai/ha, 0 to 100 scale",0
same,"Oat, Wild plant response rating (0-100)",[8]; [28],0
same,Ragweed plant response rating,"[9]; 16 g ai/ha, 0 to 100 scale",0
same,Ragweed plant response rating (0-100),[9]; [28],0
same,"Pigweed, Palmer plant response rating","[10]; 16 g ai/ha, 0 to 100 scale",0
same,"Pigweed, Palmer plant response rating (0-100)",[10]; [28],0
same,Kochia plant response rating,"kochia (Bassia scoparia) [11]; 16 g ai/ha, 0 to 100 scale",0
same,Kochia plant response rating (0-100),kochia (Bassia scoparia) [11]; [28],0
same,"Plant response rating, Rice (0 to 100 scale, 0 is no effect and 100 is complete control)",rice (Oryza sativa),0
same,"Plant response rating, Barnyardgrass (0 to 100 scale, 0 is no effect and 100 is complete control)",[12],0
same,"Plant response rating, Ducksalad (0 to 100 scale, 0 is no effect and 100 is complete control)",[13],0
same,"Plant response rating, Sedge, Umbrella (0 to 100 scale, 0 is no effect and 100 is complete control)",[14],0
same,Blackgrass plant response rating (0-100),[15]; [29],30
same,Blackgrass plant response rating (0 to 100 scale),[15]; [30],0
same,Wheat plant response rating (0-100),[16]; [29],30
same,Wheat plant response rating (0 to 100 scale),[16]; [30],0
same,"Ryegrass, Italian plant response rating (0-100)",[17]; [29],60
same,"Ryegrass, Italian plant response rating (0 to 100 scale)",[17]; [30],0
same,Horseweed plant response rating (0-100),[18]; [29],0
same,Horseweed plant response rating (0 to 100 scale),[18]; [30],0
same,"Foxtail, Green plant response rating (0-100)",[19]; [29],10
same,"Foxtail, Green plant response rating (0 to 100 scale)",[19]; [30],0
same,Corn plant response rating (0-100),corn (Zea mays) [20]; [29],0
same,Corn plant response rating (0 to 100 scale),corn (Zea mays) [20]; [30],0
same,Galium plant response rating (0-100),[21]; [29],70
same,Galium plant response rating (0 to 100 scale),[21]; [30],30
same,Barnyardgrass plant response rating (0-100),[22]; [29],40
same,Barnyardgrass plant response rating (0 to 100 scale),[22]; [30],0
same,Soybean plant response rating (0-100),soybean (Glycine max) [23]; [29],60
same,Soybean plant response rating (0 to 100 scale),soybean (Glycine max) [23]; [30],40
same,"Oat, Wild plant response rating (0-100)",[24]; [29],0
same,"Oat, Wild plant response rating (0 to 100 scale)",[24]; [30],0
same,Ragweed plant response rating (0-100),[25]; [29],30
same,Ragweed plant response rating (0 to 100 scale),[25]; [30],0
same,"Pigweed, Palmer plant response rating (0-100)",[26]; [29],50
same,"Pigweed, Palmer plant response rating (0 to 100 scale)",[26]; [30],0
same,Kochia plant response rating (0-100),kochia (Bassia scoparia) [27]; [29],60
same,Kochia plant response rating (0 to 100 scale),kochia (Bassia scoparia) [27]; [30],50
